In PMC12274840 (The Journal of Biological Chemistry, 2025):
In brackets after ≈: the same amount, converted by molar mass. Where two headings read alike, the source gives them in different places.

Assays:
[1] = test system: E. coli KA797 cells carrying BlaC position 105 library; type: cell-based, Escherichia coli; conditions: ampicillin; for Fi AMP AVG: average of replicates
[2] = test system: E. coli KA797 cells carrying pUK21 vector without the β-lactamase gene; test: microbe, parasite or virus in culture; type: cell-based; conditions: Escherichia coli; antibiotic alone; pUK21 without β-lactamase gene; read-out: MIC
[3] = test system: E. coli KA797 cells carrying KPC-2 position 105 library; type: cell-based; conditions: selection with labelled antibiotic
[4] = test system: E. coli KA797 cells carrying CTX-M-14 position 105 library; type: cell-based
[5] = test system: E. coli KA797 cells carrying pUK21 with CTX-M-14 WT (Tat); test: microbe, parasite or virus in culture; type: cell-based; conditions: Escherichia coli, antibiotic alone

CC1(C)S[C@@H]2[C@H](NC(=O)[C@H](N)c3ccccc3)C(=O)N2[C@H]1C(=O)O [ampicillin]
Significance (Fi AMP AVG) ([1]; AA 105 Ala): + | Fi AMP AVG ([1]; AA 105 Ala): 0.883 | Fi AMP 1 ([1]; AA 105 Ala, replicate 1): 0.406 | Fi AMP 2 ([1]; AA 105 Ala, replicate 2): 1.100 | Fi AMP 3 ([1]; AA 105 Ala, replicate 3): 1.141 | Fi AMP AVG ([1]; AA 105 Arg): 0.475 | Fi AMP 1 ([1]; AA 105 Arg, replicate 1): 0.818 | Fi AMP 2 ([1]; AA 105 Arg, replicate 2): -0.366 | Fi AMP 3 ([1]; AA 105 Arg, replicate 3): 0.972 | Fi AMP AVG ([1]; AA 105 Asn): -0.118 | Fi AMP 1 ([1]; AA 105 Asn, replicate 1): -0.339 | Fi AMP 2 ([1]; AA 105 Asn, replicate 2): -0.227 | Fi AMP 3 ([1]; AA 105 Asn, replicate 3): 0.211 | Fi AMP AVG ([1]; AA 105 Asp): 0.229 | Fi AMP 1 ([1]; AA 105 Asp, replicate 1): 0.470 | Fi AMP 3 ([1]; AA 105 Asp, replicate 3): -0.012 | Significance (Fi AMP AVG) ([1]; AA 105 Cys): + | Fi AMP AVG ([1]; AA 105 Cys): 0.500 | Fi AMP 1 ([1]; AA 105 Cys, replicate 1): 0.488 | Fi AMP 2 ([1]; AA 105 Cys, replicate 2): 0.257 | Fi AMP 3 ([1]; AA 105 Cys, replicate 3): 0.755 | Fi AMP AVG ([1]; AA 105 Gln): 0.694 | Fi AMP 3 ([1]; AA 105 Gln, replicate 3): 0.694 | Fi AMP AVG ([1]; AA 105 Glu): 0.120 | Fi AMP 1 ([1]; AA 105 Glu, replicate 1): -0.486 | Fi AMP 2 ([1]; AA 105 Glu, replicate 2): 1.183 | Fi AMP 3 ([1]; AA 105 Glu, replicate 3): -0.337 | Fi AMP AVG ([1]; AA 105 Gly): 0.342 | Fi AMP 1 ([1]; AA 105 Gly, replicate 1): 0.540 | Fi AMP 2 ([1]; AA 105 Gly, replicate 2): -0.133 | Fi AMP 3 ([1]; AA 105 Gly, replicate 3): 0.619 | Significance (Fi AMP AVG) ([1]; AA 105 His): + | Fi AMP AVG ([1]; AA 105 His): 2.187 | Fi AMP 1 ([1]; AA 105 His, replicate 1): 2.095 | Fi AMP 2 ([1]; AA 105 His, replicate 2): 2.262 | Fi AMP 3 ([1]; AA 105 His, replicate 3): 2.205 | Fi AMP AVG ([1]; AA 105 Ile (WT)): 0.000 | Fi AMP 1 ([1]; AA 105 Ile (WT), replicate 1): 0.000 | Fi AMP 2 ([1]; AA 105 Ile (WT), replicate 2): 0.000 | Fi AMP 3 ([1]; AA 105 Ile (WT), replicate 3): 0.000 | Fi AMP AVG ([1]; AA 105 Leu): 0.259 | Fi AMP 1 ([1]; AA 105 Leu, replicate 1): 0.406 | Fi AMP 2 ([1]; AA 105 Leu, replicate 2): -0.033 | Fi AMP 3 ([1]; AA 105 Leu, replicate 3): 0.405 | Fi AMP AVG ([1]; AA 105 Lys): 0.741 | Fi AMP 1 ([1]; AA 105 Lys, replicate 1): 0.741 | Fi AMP AVG ([1]; AA 105 Met): 0.434 | Fi AMP 1 ([1]; AA 105 Met, replicate 1): 0.165 | Fi AMP 2 ([1]; AA 105 Met, replicate 2): 0.714 | Fi AMP 3 ([1]; AA 105 Met, replicate 3): 0.423 | Significance (Fi AMP AVG) ([1]; AA 105 Phe): + | Fi AMP AVG ([1]; AA 105 Phe): 3.116 | Fi AMP 1 ([1]; AA 105 Phe, replicate 1): 3.353 | Fi AMP 2 ([1]; AA 105 Phe, replicate 2): 2.935 | Fi AMP 3 ([1]; AA 105 Phe, replicate 3): 3.061 | Fi AMP AVG ([1]; AA 105 Pro): 0.423 | Fi AMP 1 ([1]; AA 105 Pro, replicate 1): 0.675 | Fi AMP 2 ([1]; AA 105 Pro, replicate 2): 0.012 | Fi AMP 3 ([1]; AA 105 Pro, replicate 3): 0.583 | Fi AMP AVG ([1]; AA 105 Ser): 0.267 | Fi AMP 1 ([1]; AA 105 Ser, replicate 1): 1.268 | Fi AMP 2 ([1]; AA 105 Ser, replicate 2): -0.404 | Fi AMP 3 ([1]; AA 105 Ser, replicate 3): -0.062 | Fi AMP AVG ([1]; AA 105 Thr): 0.222 | Fi AMP 1 ([1]; AA 105 Thr, replicate 1): -0.283 | Fi AMP 2 ([1]; AA 105 Thr, replicate 2): 0.921 | Fi AMP 3 ([1]; AA 105 Thr, replicate 3): 0.029 | Significance (Fi AMP AVG) ([1]; AA 105 Trp): + | Fi AMP AVG ([1]; AA 105 Trp): 3.126 | Fi AMP 1 ([1]; AA 105 Trp, replicate 1): 3.329 | Fi AMP 2 ([1]; AA 105 Trp, replicate 2): 2.872 | Fi AMP 3 ([1]; AA 105 Trp, replicate 3): 3.175 | Significance (Fi AMP AVG) ([1]; AA 105 Tyr): + | Fi AMP AVG ([1]; AA 105 Tyr): 3.396 | Fi AMP 1 ([1]; AA 105 Tyr, replicate 1): 3.695 | Fi AMP 2 ([1]; AA 105 Tyr, replicate 2): 3.143 | Fi AMP 3 ([1]; AA 105 Tyr, replicate 3): 3.349 | Fi AMP AVG ([1]; AA 105 Val): -0.310 | Fi AMP 1 ([1]; AA 105 Val, replicate 1): -0.429 | Fi AMP 3 ([1]; AA 105 Val, replicate 3): -0.191 | WT abs Fi 1 ([1]; WT (Ile 105) absolute fitness, replicate 1): -1.907 | WT abs Fi 2 ([1]; WT (Ile 105) absolute fitness, replicate 2): -1.350 | WT abs Fi 3 ([1]; WT (Ile 105) absolute fitness, replicate 3): -1.353 | MIC [2]: 10 µg/mL (≈ 28.6 µM) | Fi AVG (average fitness of replicates) ([3]; KPC-2 AA 105 = Ala): -2.717 | Fi AVG (average fitness of replicates) ([3]; KPC-2 AA 105 = Arg): -1.311 | Significance of average fitness ([3]; KPC-2 AA 105 = Arg): - | Fi AVG (average fitness of replicates) ([3]; KPC-2 AA 105 = Asn): -2.270 | Significance of average fitness ([3]; KPC-2 AA 105 = Asn): - | Fi AVG (average fitness of replicates) ([3]; KPC-2 AA 105 = Cys): -1.421 | Significance of average fitness ([3]; KPC-2 AA 105 = Cys): - | Fi AVG (average fitness of replicates) ([3]; KPC-2 AA 105 = Gln): -2.210 | Significance of average fitness ([3]; KPC-2 AA 105 = Gln): - | Fi AVG (average fitness of replicates) ([3]; KPC-2 AA 105 = Glu): -2.582 | Significance of average fitness ([3]; KPC-2 AA 105 = Glu): - | Fi AVG (average fitness of replicates) ([3]; KPC-2 AA 105 = Gly): -1.606 | Significance of average fitness ([3]; KPC-2 AA 105 = Gly): - | Fi AVG (average fitness of replicates) ([3]; KPC-2 AA 105 = His): -0.658 | Fi AVG (average fitness of replicates) ([3]; KPC-2 AA 105 = Leu): -1.411 | Significance of average fitness ([3]; KPC-2 AA 105 = Leu): - | Fi AVG (average fitness of replicates) ([3]; KPC-2 AA 105 = Met): -2.639 | Significance of average fitness ([3]; KPC-2 AA 105 = Met): - | Fi AVG (average fitness of replicates) ([3]; KPC-2 AA 105 = Phe): -0.181 | Fi AVG (average fitness of replicates) ([3]; KPC-2 AA 105 = Pro): -1.601 | Significance of average fitness ([3]; KPC-2 AA 105 = Pro): - | Fi AVG (average fitness of replicates) ([3]; KPC-2 AA 105 = Ser): -2.329 | Significance of average fitness ([3]; KPC-2 AA 105 = Ser): - | Fi AVG (average fitness of replicates) ([3]; KPC-2 AA 105 = Thr): -2.338 | Fi AVG (average fitness of replicates) ([3]; KPC-2 AA 105 = Trp (WT, reference)): 0.000 | Fi AVG (average fitness of replicates) ([3]; KPC-2 AA 105 = Tyr): -1.608 | Significance of average fitness ([3]; KPC-2 AA 105 = Tyr): - | Fi AVG (average fitness of replicates) ([3]; KPC-2 AA 105 = Val): -2.672 | Significance of average fitness ([3]; KPC-2 AA 105 = Val): - | WT abs Fi 1 (absolute fitness) ([3]; KPC-2 WT (Trp 105), replicate 1): 0.183 | WT abs Fi 2 (absolute fitness) ([3]; KPC-2 WT (Trp 105), replicate 2): 0.061 | WT abs Fi 3 (absolute fitness) ([3]; KPC-2 WT (Trp 105), replicate 3): 0.422 | Significance of average fitness ([4]; CTX-M-14 AA 105 Ala): - | Significance of average fitness ([4]; CTX-M-14 AA 105 Arg): - | Significance of average fitness ([4]; CTX-M-14 AA 105 Asn): - | Significance of average fitness ([4]; CTX-M-14 AA 105 Asp): - | Significance of average fitness ([4]; CTX-M-14 AA 105 Cys): - | Significance of average fitness ([4]; CTX-M-14 AA 105 Gln): - | Significance of average fitness ([4]; CTX-M-14 AA 105 Glu): - | Significance of average fitness ([4]; CTX-M-14 AA 105 Gly): - | Significance of average fitness ([4]; CTX-M-14 AA 105 His): - | Significance of average fitness ([4]; CTX-M-14 AA 105 Ile): - | Significance of average fitness ([4]; CTX-M-14 AA 105 Leu): - | Significance of average fitness ([4]; CTX-M-14 AA 105 Lys): - | Significance of average fitness ([4]; CTX-M-14 AA 105 Met): - | Significance of average fitness ([4]; CTX-M-14 AA 105 Pro): - | Significance of average fitness ([4]; CTX-M-14 AA 105 Ser): - | Significance of average fitness ([4]; CTX-M-14 AA 105 Thr): - | Significance of average fitness ([4]; CTX-M-14 AA 105 Val): - | WT abs Fi 2 (absolute fitness of wild type, Replicate 2) ([4]; CTX-M-14 WT (Tyr 105)): 0.605 | MIC [5]: 1600 µg/mL (≈ 4580 µM)
